Columns and labels:
cut red roses [1] = assay: Vase life, dipped/dry versus BA in bucket water, 8 days at 2° C. (Example 6); type: in vivo, rose
Method: Example 5 was repeated, except that this time the sets of cut flowers were kept under refrigerated and dark conditions for 8 days instead of 24 hours.

cut red roses [2] = assay: Vase life, dipped/dry versus BA in bucket water, 24 hours at 2° C. (Example 5); type: in vivo, rose
From the text: Three different types of cut red roses were used in this study, namely ‘Hot Blood’, ‘Rhodos’ and ‘Incredible’. For each type flowers were randomly divided into four different sets.
One set of flowers (set A) was subjected to a preservation treatment that involved dipping of the flower heads into an aqueous solution of 80 ppm 6-benzylaminopurine (BA) in tap water for 3 seconds.
Immediately after the preservation treatment of set A, each set of flowers was bunched and sleeved (10 flowers per sleeved bunch) after the ends of the flower stems had been cut off, and in total 20 flowers of each set were kept for 4 hours at 20° C. under dark conditions in buckets (60 stems per bucket) with the flower stems immersed in 2 liters of water containing 1 ml/l of a flower pre-treatment product (Chrysal® Grow 20).
Following this pre-treatment, the sleeved flower bunches of set A were removed from the buckets and packaged without any external water supply in a carton box (l×b×h=1.0×0.4×0.2 m). The carton box contained 6 sleeved flower bunches.
One of the other three sets of non-dipped flowers(Control) was packaged in the same way, i.e. in carton boxes without external water supply.
The remaining two sets of non-dipped flowers (sets B and C) were introduced into buckets (20 stems per bucket) that each contained 2 liters of water.
The bucket water of set B contained 7 ppm BA. The bucket water of set C contained 7 ppm BA as well as 5 ml/l of Chrysal® Clear Professional 2 (CCP2). This product is based on sugars and acidifier, while biocides are present to protect these active ingredients against bacterial attack.
The four sets of roses were kept at 2° C. under dark conditions for 24 hours, following which each set was transferred into buckets (60 stems per bucket) that contained 2 liters of water to which 5 ml/l Chrysal® Clear Professional 2 had been added. Before introducing the cut flowers into the buckets, the ends of the flower stems were cut off. The buckets holding the sleeved cut flowers were kept for 4 days under dark, refrigerated (2° C.) conditions, and subsequently for 2 days at 20° C. under daylight conditions (12 hours 1000 lux and 12 hours dark).
Next, for each of the three different type of cut red roses the two bunches of 10 cut flowers from each of the sets were introduced in vases, each holding 1 liter of water to which 10 g/l Chrysal® Clear had previously been added. Before introducing the cut flowers into the vases, the ends of the flower stems were cut off. The vases holding the flowers were kept at 20° C. under daylight conditions (12 hours 1000 lux and 12 hours dark).
The quality of the cut flowers was assessed at regular intervals by an expert panel and from these assessments the average vase life was determined for the cut flowers of each of the 4 sets.
The letters behind the numerical scores in Table 8 indicate to which extent the difference between the 4 scores for a given set of cut flowers are statistically significant (at a P-value of 0.05). Scores that are followed by the same latter are not statistically significant.

cut red roses [3] = assay: Colour retention of red roses after 11 days on the vase (Examples 1 and 2); type: in vivo, rose; conditions: dipped in 80 ppm BA
cut roses [4] = assay: Vase life of cut roses after 14 days simulated dry refrigerated transport (Examples 1 and 2); type: in vivo, rose; conditions: flower heads dipped 3 s in 80 ppm BA, 14 days dry transport at 2° C.
Method: Freshly cut red roses (Red Desire') were obtained from a greenhouse in the Netherlands. These flowers were randomly divided into three different sets . Within 4 hours of cutting, one set of flowers (set A) was subjected to a preservation treatment that involved dipping of the flower heads into an aqueous solution of 80 ppm 6-benzylaminopurine (BA) in tap water for 3 seconds. Immediately after the preservation treatment, each set of flowers was bunched and sleeved (6 flowers per sleeved bunch) after the ends of the flower stems had been cut off, and in total 108 flowers of each set were kept 24 hours at 2° C. under dark conditions in buckets (54 stems per bucket) with the flower stems immersed in 2 liters of water containing 1 ml/l of a flower pre-treatment product ([…]® Grow 20). Following this pre-treatment, the sleeved flower bunches of set A were removed from the buckets and packaged without any external water supply in a carton box (l×b×h=1.0×0.4×0.2 m). The carton box contained 18 sleeved flower bunches. One of the other two sets of flowers (Control) was packaged in the same way. The remaining set of flowers (Reference) was not packaged dry into a carton box, but immediately subjected to the sequence of storage and display conditions described in Table 1. [table] Before the refrigerated storage and the home display the ends of the flower stems were cut off. The packaged flowers (sleeved and in a carton box) belonging to Set A and the Control set were subjected to simulated refrigerated transport under dry, dark conditions for 14 days at 2° C. before also being subjected to the sequence of storage and display conditions described in Table 1. Before the refrigerated storage stage the BA concentrations in the flower heads were analyzed. In addition, the vase life of the flowers was assessed by an expert panel during the home display period. Example 1 was repeated, except that this time, instead of using cut roses obtained from a Dutch green house, cut roses that had been air transported under dry conditions from Kenya to the Netherlands were used. Three different types of cut red roses were used in this study, namely 'Hot Blood', 'Rhodos' and 'Incredible'.

cut roses [5] = assay: Vase life and leaf quality after 9 days simulated dry transport (Examples 3 and 4); type: in vivo, rose; conditions: for Vase life: dipped in 80 ppm BA, 9 days dry transport; for Leaf quality: visual score after 12 days on the vase, 1=poor, 5=good
From the text: Example 1 was repeated, except that this time no Reference set was used, i.e. the study used two sets of flowers that were both transported without water supply (dry). Furthermore, the cut roses used in the study had been air transported under dry conditions from Colombia to the Netherlands. Bunches containing 4 flowers of each of three different types of roses (‘Red Intuition’ (red), ‘Citran’ (yellow), ‘Vendela’ (white) were used in this study. The duration of simulated transportation was reduced from 14 to 9 days and the duration of shop display was increased from 2 to 3 days.
Besides the vase life of the flowers the expert panel also scored visual leaf quality after 12 days on the vase (1=poor, 5=good). The BA concentration in the flower heads was not analyzed in this study.
Example 3 was repeated, except that this time the following three different types of roses were used in the study: • ‘Freedom’ (red) • ‘Bonanza’ (peach) • ‘Sandra’ (pink)

[6] = tested on: flower spikes of gladiolus and carnation; conditions: stems immersed in 10, 30 and 75 ppm solution; spikes previously wilted dry for 4 hours; cited from earlier work
cut rose flowers = conditions: sprayed or held in solution prior to simulated home conditions; cited from earlier work
rose flower buds = conditions: 350 mg/L (ca. 1 mM) solution; preliminary experiments, data not shown; cited from earlier work

For c1ccc(CNc2ncnc3nc[nH]c23)cc1 [BA, 6-benzylaminopurine], the “Average vase life of the dipped set versus the non-dipped sets” value (cut red roses [1]; 'Hot Blood', P-value of 0.05, 8 days at 2° C.) was “higher than that of the non-dipped sets, but the difference with the control set and set C was not statistically significant”, the “Vase life” value (cut red roses [1]; 'Hot Blood', non-dipped, wet, stems in bucket water containing 7 ppm BA, 8 days at 2° C.) was 7.3 days and the “Vase life” value (cut red roses [1]; 'Hot Blood', set A, flower heads dipped in 80 ppm BA, dry in carton box 8 days at 2° C.) was 11.8 days. For the same molecule, the “Vase life” value (cut red roses [1]; 'Incredible', non-dipped, wet, stems in bucket water containing 7 ppm BA, 8 days at 2° C.) was 10.4 days, the “Vase life” value (cut red roses [1]; 'Incredible', set A, flower heads dipped in 80 ppm BA, dry in carton box 8 days at 2° C.) was 14.8 days and the “Vase life” value (cut red roses [1]; 'Rhodos', non-dipped, wet, stems in bucket water containing 7 ppm BA, 8 days at 2° C.) was 8.2 days. The “Vase life” value (cut red roses [1]; 'Rhodos', set A, flower heads dipped in 80 ppm BA, dry in carton box 8 days at 2° C.) was 13.5 days, the “Vase life of the dipped set versus the non-dipped sets” value (cut red roses [1]; two of the rose types ('Rhodos', 'Incredible'), P-value of 0.05, 8 days at 2° C.) was “significantly longer vase life” and the “Vase life” value (cut red roses [2]; 'Hot Blood', non-dipped, wet, stems in bucket water containing 7 ppm BA, 24 hours at 2° C.) was 11.2 days. The “Vase life” value (cut red roses [2]; 'Hot Blood', set A, flower heads dipped in 80 ppm BA, dry in carton box 24 hours at 2° C.) was 16.2 days, the “Vase life” value (cut red roses [2]; 'Incredible', non-dipped, wet, stems in bucket water containing 7 ppm BA, 24 hours at 2° C.) was 11.1 days and the “Vase life” value (cut red roses [2]; 'Incredible', set A, flower heads dipped in 80 ppm BA, dry in carton box 24 hours at 2° C.) was 17.2 days. The “Vase life” value (cut red roses [2]; 'Rhodos', non-dipped, wet, stems in bucket water containing 7 ppm BA, 24 hours at 2° C.) was 9.4 days, the “Vase life” value (cut red roses [2]; 'Rhodos', set A, flower heads dipped in 80 ppm BA, dry in carton box 24 hours at 2° C.) was 13.9 days and the “Vase life of the dipped set versus the non-dipped sets” value (cut red roses [2]; each of the rose types, P-value of 0.05, 24 hours at 2° C.) was “significantly longer vase life”. The “Colour of the red roses after 11 days on the vase” value (from here on “Colour of the red roses”) (cut red roses [3]; 'Hot Blood', control showed blueing/darkening) was “retained most of their original red colour”, the “Colour of the red roses” value (cut red roses [3]; 'Incredible', control showed blueing/darkening) was “retained most of their original red colour” and the “Colour of the red roses” value (cut red roses [3]; 'Red Desire', control showed bluing/darkening) was “retained most of their original red colour”. For the same molecule, the “Colour of the red roses” value (cut red roses [3]; 'Rhodos', control showed blueing/darkening) was “retained most of their original red colour”, the “Vase life” value (cut roses [4]; 'Hot Blood' (Kenya)) was 13.9 days and the “Vase life” value (cut roses [4]; 'Incredible' (Kenya)) was 13.0 days. The “Vase life” value (cut roses [4]; 'Red Desire') was 12.8 days, the “Vase life” value (cut roses [4]; 'Rhodos' (Kenya)) was 14.9 days and the “Vase life” value (cut roses [5]; 'Bonanza' (peach)) was 14.5 days. For the same molecule, the “Vase life” value (cut roses [5]; 'Citran' (yellow, Colombia)) was 12.5 days, the “Vase life” value (cut roses [5]; 'Freedom' (red)) was 18.8 days and the “Vase life” value (cut roses [5]; 'Red Intuition' (red, Colombia)) was 9.6 days. The “Vase life” value (cut roses [5]; 'Sandra' (pink)) was 17.6 days, the “Vase life” value (cut roses [5]; 'Vendela' (white, Colombia)) was 13.0 days and the Leaf quality (cut roses [5]; Example 3 (Red Intuition, Citran, Vendela)) was 3.0. The Leaf quality (cut roses [5]; Example 4 (Freedom, Bonanza, Sandra)) was 4.0, the “Effect on vase life of flower spikes” value [6] was “extended the vase life” and the “Effect on rose vase life” value (cut rose flowers) was “did not benefit on rose vase life”.

For C=C1C[C@]23C[C@@]1(O)CC[C@H]2[C@@]12C=C[C@H](O)[C@](C)(C(=O)O1)[C@H]2[C@@H]3C(=O)O [GA3], the “Effect on rose flower vase-life when applied as a spray” value (rose flower buds) is given as “optimal for improving rose flower vase-life”.

For c1coc(CNc2ncnc3[nH]cnc23)c1 [KI, kinetin], the “Effect on rose vase life” value (cut rose flowers) is given as “did not benefit on rose vase life”.
